Consider two compounds from US6034136A, “Certain cyclic thio substituted acylaminoacid amide derivatives” (Novartis AG, priority 1998, dated 2000).

For orientation: IC50 means the concentration at which inhibition is half-maximal.

Molecules are shown by their SMILES.

Holding throughout (assay type): biochemical
The target in assay [1] is T1, Human recombinant fibroblast collagenase (collagenase-1) (Homo sapiens, UniProt P03956).
T1 sequence (P03956 100-469): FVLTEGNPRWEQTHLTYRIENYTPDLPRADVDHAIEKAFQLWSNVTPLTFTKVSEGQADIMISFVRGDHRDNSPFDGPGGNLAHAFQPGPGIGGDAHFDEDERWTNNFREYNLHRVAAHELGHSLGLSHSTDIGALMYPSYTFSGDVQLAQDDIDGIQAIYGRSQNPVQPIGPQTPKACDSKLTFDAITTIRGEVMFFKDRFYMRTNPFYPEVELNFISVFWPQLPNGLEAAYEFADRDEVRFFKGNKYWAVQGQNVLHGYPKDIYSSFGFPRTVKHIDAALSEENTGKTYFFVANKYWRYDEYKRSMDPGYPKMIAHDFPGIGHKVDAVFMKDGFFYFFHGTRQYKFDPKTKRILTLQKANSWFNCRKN
As to the kind of experiment: Collagenase-1 inhibitory activity (bovine type I collagen digestion, Coomasie blue). As to conditions: 2 hours at 35° C., read-out: IC50 for inhibition of collagenase-1 activity. The procedure: Collagenase -1 inhibitory activity is determined as follows: ninety six-well, flat-bottom microtiter plates are first coated with bovine type I collagen (35 ug/well) over a two-day period at 30° C. using a humidified and then dry atmosphere; plates are rinsed, air dried for 3-4 hours, sealed with Saran wrap and stored in a refrigerator. Human recombinant fibroblast collagenase and a test compound (or buffer) are added to wells (total volume=0.1 ml) and plates are incubated for 2 hours at 35° C. under humidified conditions; the amount of collagenase used per well is that causing approximately 80% of maximal digestion of collagen. The incubation media are removed from the wells, which are then rinsed with buffer, followed by water. […] Sodium dodecyl sulfate (20% in 50% dimethylformamide in water) is added to solubilize the remaining stained collagen and the optical density at 570 nm wave length is measured. The decrease in optical density due to collagenase (from that of collagen without enzyme) is compared to the decrease in optical density due to the enzyme in the presence of test compound, and percent inhibition of enzyme activity is calculated. IC50 's are determined from a range of concentrations of inhibitors (4-5 concentrations, each tested in triplicate), and KI values are calculated. […]

The target of another assay is collagenase-3 (Homo sapiens, UniProt P45452). As to the kind of experiment: Collagenase-3 inhibitory activity (fluorescent substrate MCA-Pro-Leu-Gly-Dpa-Ala-Arg-NH2). As to conditions: room temperature, 10 minutes preincubation, fluorescence; read-out: IC50 for inhibition of collagenase-3 activity. The procedure: Collagenase-3 inhibitory activity is determined as follows:
[…] solutions of substrate (MCA-Pro-Leu-Gly-Dpa-Ala-Arg-NH2, J. Biol. Chem. 271, 1544-1550, 1996) and 10 nM stock solution of inhibitor are prepared in DMSO. They are diluted with assay buffer ([…] at pH 7.5 containing 10 mM CaCl2, 0.002% sodium azide) as needed. Recombinant pro-collagenase-3 is activated with 1 mM APMA, and stored in the assay buffer after extensive dialysis in the assay buffer. Recombinant enzyme solution (0.05 ml, 1.3 nM) is mixed with 0.05 mL of inhibitor solution at various concentrations for 10 minutes at room temperature. Then 0.025 mL of 8 μM substrate solution is added and fluorescence (λex=325; λem=405) is continuously measured at room temperature. The percent inhibition of collagenase-3 activity is determined from the effect of inhibitor at various concentrations on the change in fluorescence; the IC50 is determined graphically.
Compounds of formula I have an IC50 of about 5 nM to about 100 nM for inhibition of collagenase-3 activity.

Assay [2] addresses recombinant human stromelysin (Homo sapiens, UniProt P08254). The experiment in a line: inhibition of stromelysin activity (hydrolysis of Substance P, HPLC). As to conditions: Substance P substrate, 30 minutes at 37° C. The procedure: One test to determine the inhibition of stromelysin activity is based on its hydrolysis of Substance P using a modified procedure of Harrison et al (Harrison, R. A., Teahan J., and Stein R., A semicontinuous, high performance chromatography based assay for stromelysin, Anal. Biochem. 180, 110-113 (1989)). In this assay, Substance P is hydrolyzed by recombinant human stromelysin to generate a fragment, Substance P 7-11, which can be quantitated by HPLC. In a typical assay, a 10 mM stock solution of a compound to be tested is diluted in the assay buffer to 50 μM, mixed 1:1 with 8 μg recombinant human stromelysin (mol. wt. 45-47 kDa, 2 Units; where 1 Unit produces […] of Substance P 7-11 in 30 minutes) and incubated along with 0.5 mM Substance P in a final volume of 0.125 ml for 30 minutes at 37° C. The reaction is stopped by adding 10 mM EDTA and Substance P 7-11 is quantified on RP-8 HPLC. The IC50 for inhibition of stromelysin activity and Ki are calculated from control reaction without the inhibitor.
Compounds of formula I have an IC50 of about 10 nM to about 5 μM for inhibition of stromelysin activity.

Chain of recombinant human stromelysin (P08254 100-477): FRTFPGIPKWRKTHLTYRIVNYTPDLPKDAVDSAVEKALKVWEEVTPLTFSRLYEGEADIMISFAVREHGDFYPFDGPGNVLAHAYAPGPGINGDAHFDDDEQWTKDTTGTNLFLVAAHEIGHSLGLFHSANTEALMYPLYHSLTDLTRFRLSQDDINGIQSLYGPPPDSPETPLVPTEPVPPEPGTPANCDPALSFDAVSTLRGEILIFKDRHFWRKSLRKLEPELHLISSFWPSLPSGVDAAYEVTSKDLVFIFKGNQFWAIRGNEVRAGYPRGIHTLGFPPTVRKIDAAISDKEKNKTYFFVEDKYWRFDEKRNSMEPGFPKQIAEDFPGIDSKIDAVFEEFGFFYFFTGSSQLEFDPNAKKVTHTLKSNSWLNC

As for `CNC(=O)[C@H](Cc1ccccc1)NC(=O)C1(C(S)CCc2ccccc2)CCCCC1` (stereo partly drawn) [2(d), (S)-2-[N-(1-(1-mercapto-3-phenylpropyl)-cyclohexanecarbonyl)amino]-3-phenylpropionic acid N-methylamide], the half-inhibitory concentration (IC50) in assay [1] is around 200 nM; at collagenase-3, around 20 nM.

As to `CCO[C@H]1CC[C@@](CS)(C(=O)N[C@@H](Cc2ccccc2)C(=O)Nc2ccccc2)CC1` [2(e), (S)-2-[N-(1-mercaptomethyl-cis-4-ethoxycyclohexanecarbonyl)amino]-3-phenylpropionic acid N-phenylamide], the IC50 in assay [2] was around 70 nM.
